In brackets after ≈: the same amount, converted by molar mass. Read-outs that look alike come from different tables or passages of the source.
Tests used:
AcmJRL [1] = molecular target: T1, AcmJRL (Ananas comosus, UniProt Q53J09); set-up: inhibition of lectin-induced rat erythrocyte hemagglutination, two-fold serial dilution, lowest saccharide concentration visibly decreasing agglutination; conditions: minimum concentration inhibiting hemagglutination of rat erythrocytes; inhibitor
T1 construct: native, purified from pineapple stem (D-mannose-Agarose, Superdex 75); initiator Met absent; N-terminus SGLVGLG; residues 2-145; not glycosylated; homodimer in solution, tetramer in crystal
T1 sequence (Q53J09 2-145): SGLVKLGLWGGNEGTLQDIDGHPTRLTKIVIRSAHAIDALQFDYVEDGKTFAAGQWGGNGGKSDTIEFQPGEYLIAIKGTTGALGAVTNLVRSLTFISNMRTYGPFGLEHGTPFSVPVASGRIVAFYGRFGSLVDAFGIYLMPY
Method: Hemagglutinating activity was performed in microtiter plates with V-bottom wells, using the two-fold serial dilution method, starting with a concentration of 1 mg/mL (65 µM) lectin in phosphate-buffered saline containing 150 mM NaCl. Rabbit, sheep and rat erythrocytes were washed six times with 150 mM NaCl and resuspended at a final concentration of 3% (v/v) in 150 mM NaCl. Twenty-five µL of lectin solution were mixed with 25 µL of 3% erythrocytes, serially diluted and incubated at room temperature and 37 °C for 1 h. Hemagglutination activity was also assayed in the presence of 50 mM of the divalent ions Mg^2+, Mn^2+ Zn^2+ and Ca^2+. In this case, Tris-HCl 50 mM buffer at pH 7.2 containing 150 mM NaCl was used to avoid precipitation of phosphate compounds. The hemagglutination activity was given as a titer (the reciprocal of the highest two-fold dilution) or expressed as the minimum protein concentration (μg/mL), which produced visible hemagglutination and denoted as Hemagglutinating Unit (HU). Specific activity was defined as the HU per milligram of protein. The carbohydrate-binding specificity was determined by the inhibition of hemagglutination of rat erythrocytes, that were only the hemagglutinated ones, with starting concentrations of 100 mM for D-mannose, methyl-α-D-mannopyranoside and methyl-α-D-glucopyranoside, 50 mM for D-glucose and N-acetyl-D-glucosamine, 15 mM for Manα1,3Man and Manα1,3(Manα1,6)Man and 10 mM for Manα1,3Manα1,6(Manα1,6)Manα1,3. The different saccharides were serially diluted from the starting concentrations. After addition of 25 µL of A. comosus lectin (187.5 µg/mL) to all microplate wells, 25 µL of each saccharide were mixed separately in the first microtiter plate well followed by two-fold serial dilution and pre-incubated at room temperature for 1 h. Then 25 µL of 3% […] erythrocyte suspension were added to each well and the hemagglutination activity was evaluated after a further 1 h incubation period at room temperature and 37 °C. […] These are, e.g., the lectins from Phlebodium aureum rhizomes and Centrolobium microchaete seeds and heltuba[19],[47],[52].

AcmJRL [2] = molecular target: T2, AcmJRL (Ananas comosus, UniProt Q53J09); assay: isothermal titration calorimetry; format: binding; conditions: for Ka (M^-1): Tris-HCl 50 mM, 150 mM NaCl, pH 7.4, 25 °C, fit with fixed n = 2 equivalent sites
T2 construct: native, purified from pineapple stem (D-mannose-Agarose, Superdex 75); initiator Met absent; N-terminus SGLVGLG; residues 2-145; not glycosylated; homodimer in solution, tetramer in crystal
Description: isothermal titration calorimetry on AcmJRL

AcmJRL [3] = molecular target: T2, AcmJRL; assay: inhibition of rat erythrocyte hemagglutination; format: cell-based; conditions: AcmJRL 62.5 µg/mL; two-fold serial dilution of sugar
[4] = molecular target: the molecule itself; assay: SEC; FPLC gel filtration on Superdex 75 of affinity-purified AcmJRL; 0.15 mM protein; estimated native mass ~30 kDa
[5] = molecular target: the molecule itself; assay: crystal structure; hanging drop vapor diffusion at 20 °C, protein at 17 mg/mL (1.1 mM); apo form (1.8 Å) and crystals soaked with D-mannose (2.75 Å) or methyl-α-D-mannopyranoside (1.9 Å)

For `OC[C@H]1O[C@H](OC[C@H]2O[C@H](OC[C@H]3OC(O)[C@@H](O)[C@@H](O[C@H]4O[C@H](CO)[C@@H](O)[C@H](O)[C@@H]4O)[C@@H]3O)[C@@H](O)[C@@H](O[C@H]3O[C@H](CO)[C@@H](O)[C@H](O)[C@@H]3O)[C@@H]2O)[C@@H](O)[C@@H](O)[C@@H]1O` (stereo partly shown) [Mannopentaose], the “MIC” value (AcmJRL [1]) was 320 µM (≈ 265 µg/mL) and the “Ka (M^-1)” value (AcmJRL [2]) was 1694 ± 679.

`OC[C@H]1OC(O)[C@H](O)[C@@H](O)[C@@H]1O` (stereo partly drawn) [D-Glucose] was tested, and the “MIC” value (AcmJRL [1]) was 3120 µM (≈ 562 µg/mL) and the “Ka (M^-1)” value (AcmJRL [2]) was 83 ± 3.

For `OC[C@H]1O[C@H](OC[C@H]2OC(O)[C@@H](O)[C@@H](O[C@H]3O[C@H](CO)[C@@H](O)[C@H](O)[C@@H]3O)[C@@H]2O)[C@@H](O)[C@@H](O)[C@@H]1O` (stereo partly shown) [Mannotriose], the “MIC” value (AcmJRL [1]) was 470 µM (≈ 237 µg/mL) and the “Ka (M^-1)” value (AcmJRL [2]) was 734 ± 117.

Molecule `CO[C@H]1O[C@H](CO)[C@@H](O)[C@H](O)[C@@H]1O` [methyl-α-D-mannopyranoside] has an MIC (AcmJRL [3]) of 1560 µM (≈ 303 µg/mL).

`OC[C@H]1OC(O)[C@@H](O)[C@@H](O)[C@@H]1O` (stereo partly drawn) [D-Mannose] was tested, and the “MIC” value (AcmJRL [1]) was 6250 µM (≈ 1130 µg/mL) and the Kd (AcmJRL [2]; read-out: Ka (M^-1) (converted)) was 5.62 mM.

For `CC(=O)N[C@H]1C(O)O[C@H](CO)[C@@H](O)[C@@H]1O` (stereo partly shown) [GlcNAc], the “MIC” value (AcmJRL [1]) was 3120 µM (≈ 690 µg/mL) and the “Ka (M^-1)” value (AcmJRL [2]) was 88 ± 1.

`OC[C@H]1O[C@H](O[C@H]2[C@H](O)[C@@H](CO)OC(O)[C@H]2O)[C@@H](O)[C@@H](O)[C@@H]1O` (stereo partly shown) [Manα1,3Man] was tested, and the “MIC” value (AcmJRL [1]) was 940 µM (≈ 322 µg/mL) and the “Ka (M^-1)” value (AcmJRL [2]) was 421 ± 52.

`CO[C@H]1O[C@H](CO)[C@@H](O)[C@H](O)[C@H]1O` [methyl-α-D-glucopyranoside] was tested, and the MIC (AcmJRL [3]) was 1560 µM (≈ 303 µg/mL).

B1: Ananas comosus mannose jacalin-related lectin (AcmJRL) (natural protein, UniProt Q53J09 2-145, looked up)
chain: T1 sequence (Q53J09 2-145)
notes: jacalin-like lectin from Ananas comosus (pineapple) stem, SwissProt entry Q53J09_ANACO; each monomer in the crystal runs from Ser2 to Tyr145; not glycosylated; Homodimer in solution by size-exclusion chromatography (0.15 mM); tetramer in the crystal (1.1 mM); Purification methods are in the Supplementary Materials and Methods; also called A. comosus lectin; jacalin-like lectin from A. comosus
In the case of B1, the “stoichiometry N” value [4] is reported as 2 and the “stoichiometry N” value [5] is reported as 4.

— paper PMC6068142, “Biochemical and structural characterization of a mannose binding jacalin-related lectin with two-sugar binding sites from pineapple (Ananas comosus) stem” (Scientific Reports, 2018)
